{
  "source": "patent US12077605B2",
  "about": "“Cysteine protease inhibitors and methods of use thereof” (ANIXA BIOSCIENCES, INC., priority 2022, dated 2024)",
  "target": "SARS-CoV-2 main protease M^pro (Severe acute respiratory syndrome coronavirus 2 (2019-nCoV) (SARS-CoV-2), UniProt P0DTD1)",
  "assay": "Mpro enzyme activity assay (biochemical FRET-based)",
  "settings": "recombinant Mpro (Ser1-Gln306); EDANS/Dabcyl FRET substrate peptide 2 μM; 30 min pre-incubation; pH 7.3; read-out: Mpro inhibition IC50",
  "data": [
    {"smiles": "CNC(=O)C(=O)[C@H](CN1CCNC1=O)NC(=O)[C@H](CC(C)C)NC(=O)c1cc2c(OC)cccc2[nH]1", "note": "[compound 2, 4-methoxy-N-((S)-4-methyl-1-(((S)-4-(methylamino)-3,4-dioxo-1-(2-oxoimidazolidin-1-yl)butan-2-yl)amino)-1-oxopentan-2-yl)-1H-indole-2-carboxamide]", "values": [
      {"measurement": "IC50", "value": 0.114, "unit": "µM"}
    ]}
  ]
}
